Measured values: ChEMBL document CHEMBL1201862, “PubChem BioAssay data set” (2004)
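Method: 48-hour compound exposure of cells in 96-well plates, five concentrations, linear interpolation of endpoints. GI50 is the concentration that inhibits growth by half.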 The source made the active and inactive calls. Rule as the data show it: active = GI50 up to about 1.1 µM and inactive = higher.

What was measured:
Assay in all cases: growth of human tumour cells (NCI), 48 h
[1] = test system: 786-0
[2] = test system: A498
[3] = test system: A549
[4] = test system: ACHN
[5] = test system: BT-549
[6] = test system: CAKI-1
[7] = test system: CCRF-CEM
[8] = test system: COLO 205
[9] = test system: DLD-1
[10] = test system: DMS-114
[11] = test system: DMS-273
[12] = test system: DU-145
[13] = test system: EKVX
[14] = test system: HCC 2998
[15] = test system: HCT-116
[16] = test system: HCT-15
[17] = test system: HL-60
[18] = test system: HOP-18
[19] = test system: HOP-62
[20] = test system: HOP-92
[21] = test system: HT-29
[22] = test system: Hs-578T
[23] = test system: IGROV-1
[24] = test system: K562
[25] = test system: KM-20L2
[26] = test system: KM12
[27] = test system: LOX IMVI
[28] = test system: LXFL 529
[29] = test system: M14
[30] = test system: M19-MEL
[31] = test system: MCF7
[32] = test system: MDA-MB-231
[33] = test system: MDA-MB-435
[34] = test system: MDA-N
[35] = test system: MOLT-4
[36] = test system: Malme-3M
[37] = test system: NCI-H226
[38] = test system: NCI-H23
[39] = test system: NCI-H460
[40] = test system: NCI-H522
[41] = test system: OVCAR-3
[42] = test system: OVCAR-4
[43] = test system: OVCAR-5
[44] = test system: OVCAR-8
[45] = test system: PC-3
[46] = test system: RPMI-8226
[47] = test system: RXF 393
[48] = test system: RXF 631
[49] = test system: SF-268
[50] = test system: SF-295
[51] = test system: SF-539
[52] = test system: SK-MEL-28
[53] = test system: SK-MEL-2
[54] = test system: SK-MEL-5
[55] = test system: SK-OV-3
[56] = test system: SN12C
[57] = test system: SNB-19
[58] = test system: SNB-75
[59] = test system: SNB-78
[60] = test system: SR
[61] = test system: SW-620
[62] = test system: T47D
[63] = test system: TK-10
[64] = test system: U-251
[65] = test system: UACC-257
[66] = test system: UACC-62
[67] = test system: UO-31
[68] = test system: XF498

CC(=O)Oc1cccc2c1C(=O)C(Br)(Br)CCC2
GI50 [1]: 5.32 µM (inactive)
GI50 [2]: 19 µM (inactive)
GI50 [3]: 17.7 µM (inactive)
GI50 [4]: 6.38 µM (inactive)
GI50 [5]: 2.14 µM (inactive)
GI50 [6]: 6.62 µM (inactive)
GI50 [7]: 1.34 µM (inactive)
GI50 [8]: 6.52 µM (inactive)
GI50 [9]: 10.1 µM (inactive)
GI50 [10]: 2.54 µM (inactive)
GI50 [11]: 3.75 µM (inactive)
GI50 [12]: 13.7 µM (inactive)
GI50 [13]: 11 µM (inactive)
GI50 [14]: 15.3 µM (inactive)
GI50 [15]: 3.26 µM (inactive)
GI50 [16]: 5.12 µM
GI50 [17]: 2.38 µM (inactive)
GI50 [18]: 18.2 µM (inactive)
GI50 [19]: 14.4 µM (inactive)
GI50 [20]: 2.93 µM (inactive)
GI50 [21]: 5.55 µM (inactive)
GI50 [22]: 7.38 µM (inactive)
GI50 [23]: 13.5 µM (inactive)
GI50 [24]: 3.3 µM (inactive)
GI50 [25]: 8.05 µM (inactive)
GI50 [26]: 8.49 µM (inactive)
GI50 [27]: 2.17 µM (inactive)
GI50 [28]: 6.55 µM (inactive)
GI50 [29]: 2.51 µM (inactive)
GI50 [30]: 7.28 µM (inactive)
GI50 [31]: 2.29 µM (inactive)
GI50 [32]: 2.38 µM (inactive)
GI50 [33]: 3.56 µM (inactive)
GI50 [34]: 2.89 µM (inactive)
GI50 [35]: 1.11 µM (active)
GI50 [36]: 4.07 µM (inactive)
GI50 [37]: 6.68 µM (inactive)
GI50 [38]: 4.29 µM (inactive)
GI50 [39]: 17.3 µM (inactive)
GI50 [40]: 1.87 µM (inactive)
GI50 [41]: 6.97 µM (inactive)
GI50 [42]: 1.83 µM (inactive)
GI50 [43]: 7.6 µM (inactive)
GI50 [44]: 4.38 µM (inactive)
GI50 [45]: 3.96 µM (inactive)
GI50 [46]: 2.22 µM (inactive)
GI50 [47]: 6.24 µM (inactive)
GI50 [48]: 17.4 µM (inactive)
GI50 [49]: 8.34 µM (inactive)
GI50 [50]: 17.5 µM (inactive)
GI50 [51]: 9.31 µM (inactive)
GI50 [52]: 10.5 µM (inactive)
GI50 [53]: 9.23 µM (inactive)
GI50 [54]: 4.41 µM (inactive)
GI50 [55]: 10.1 µM (inactive)
GI50 [56]: 5.86 µM (inactive)
GI50 [57]: 11.1 µM (inactive)
GI50 [58]: 6.1 µM (inactive)
GI50 [59]: 17.3 µM (inactive)
GI50 [60]: 1.77 µM (inactive)
GI50 [61]: 2.81 µM (inactive)
GI50 [62]: 2.53 µM (inactive)
GI50 [63]: 16.9 µM (inactive)
GI50 [64]: 9.62 µM (inactive)
GI50 [65]: 10.9 µM (inactive)
GI50 [66]: 7.76 µM (inactive)
GI50 [67]: 9.46 µM (inactive)
GI50 [68]: 11.2 µM (inactive)
